# Experimental data: patent US20240174650A1, “8-(PICOLINAMIDE) SUBSTITUTED COUMARIN COMPOUND, AND PREPARATION METHOD THEREFOR AND USE THEREOF” (LONGIVITRON (SUZHOU) BIOTECHNOLOGY CO., LTD, priority 2021, published 2024)
# Key:
# [1] = test system: SH-SY5Y cells damaged by neurotoxicant MPP+; test: Protective activity on Parkinson's disease cell model (MPP+ treated SH-SY5Y, cell viability); assay type: cell-based; details: compound 10 μM, MPP+ 5 mM, 48 h; FIG. 1
# Description: Screening for compounds with protective activity on Parkinson ? s disease cell model:
# For the screening test for protective effects on the Parkinson ? s disease cell model, the commonly recognized neurotoxicant MPP^+ (5 mM) is used on the neuroblastoma cell SH-SY5Y to construct the Parkinson ? s disease cell model. This neurotoxicant acts on the SH-SY5Y cell, induces abnormal accumulation of α-synuclein in the cells and causes Parkinson ? s disease-like neurotoxicity. The specific test method is as follows: approximately 20000 SH-SY5Y cells were grown in a 96-well cell plate and cultured overnight. […] The cell viability of the Parkinson ? s disease cell model was determined to assess the protective effects of the compounds on the Parkinson ? s cell model. The test data were analyzed by using GraphPad Prism.
# [2] = target: SIRT2 recombinant protein (Homo sapiens (Human), UniProt Q8IXJ6); test: In vitro activity screening of SIRT2 inhibitors (fluorogenic Ac-Gln-Pro-Lys-[Lys-(Ac)]-AMC peptide deacetylation assay); assay type: biochemical; details: recombinant SIRT2 1.0 μg, 500 μM NAD+, 50 μM substrate peptide, 37° C. 2 hours
# Sequence of SIRT2 recombinant protein (Q8IXJ6 whole entry): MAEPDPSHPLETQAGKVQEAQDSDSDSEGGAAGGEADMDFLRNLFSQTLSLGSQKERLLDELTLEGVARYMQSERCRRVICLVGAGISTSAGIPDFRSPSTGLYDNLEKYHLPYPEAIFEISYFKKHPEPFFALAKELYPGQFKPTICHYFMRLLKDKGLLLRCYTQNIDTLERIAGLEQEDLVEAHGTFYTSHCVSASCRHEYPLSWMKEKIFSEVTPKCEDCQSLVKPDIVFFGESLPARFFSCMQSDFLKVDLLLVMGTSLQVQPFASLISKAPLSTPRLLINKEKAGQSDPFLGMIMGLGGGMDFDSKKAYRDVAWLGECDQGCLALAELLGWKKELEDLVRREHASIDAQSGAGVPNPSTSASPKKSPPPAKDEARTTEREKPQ
# Excerpt: In vitro activity screening of SIRT2 inhibitors:
# The full-length expression sequence ORF of the human SIRT2 gene is 1170 bp (Accession No.: NM_012237), and the molecular mass of the expressed SIRT2 protein is 43 KDa. The SIRT2 recombinant protein is expressed and purified according to the following steps: the SIRT2 gene was cloned into the expression vector pET-15b (primers were shown as follows: forward: 5 ? -[…]-3 ? (SEQ ID NO. 1); backward: 5 ? -[…]-3 ? (SEQ ID NO. 2)), and the expressed SIRT2 protein contained His6-tag at the N-terminus for purification. The plasmid was transformed into E. coli […], and expressed for 6 h at 18° C. with 1 mM IPTG induction. The induced E. coli cells were collected by centrifugation and frozen at −20° C. Bacterial pellet was re-suspended in 15 mL of cell lysis buffer (50 mM Tris-HCl pH 8.0, 300 mM NaCl), and the bacterial sample was disrupted by sonication for 10 min, and then centrifuged (12000×g, 20 min) at 4° C. to remove the precipitates.
# The supernatant was purified by Ni^2+ NTA-agarose matrix column (Qiagen). In the purification process, the unbound proteins were first washed away with the loading buffer (50 mM Tris-HCl pH 8.0, 300 mM NaCl), subsequently, the non-specifically bound proteins were washed away by gradually increasing the concentration of imidazole (0-200 mM), and finally the purified recombinant SIRT2 protein was obtained. Imidazole was removed using a PD-10 column and the concentration of purified SIRT2 protein was determined by the Bradford method. The recombinant SIRT2 protein was stored at −20° C. in a preservation buffer (50 mM Tris-HCl, pH 8.0, 265 mM NaCl, 0.2 mM DTT, and 10% glycerol).
# The SIRT2 enzyme activity assay is established based on the published studies. Firstly, peptide segment Ac-Gln-Pro-Lys-[Lys-(Ac)]-AMC, the substrate of SIRT2, was synthesized to serve as a substrate in the enzyme activity assay. The attached fluorescent label was AMC (7-Amino-4-methylcoumarin). […] The reaction was carried out at 37° C. for 2 hours. […] Afterwards, 60 μL of sample treating solution (50 mM Tris-HCl, pH 8.0, 100 mM NaCl, Trypsin and 4 mM nicotinamide) was added to the reaction solution and mixed, and placed at 37° C. for 20 min. Absorption intensity was measured by the enzyme-labeled instrument configured as an excitation light of 355 nm and an absorption light of 460 nm.
# [3] = test system: neuroblastoma cell SH-SY5Y; test: Cytotoxicity assay for neuroblastoma cell SH-SY5Y (AlamarBlue); assay type: cell-based; details: 48 hours incubation
# Description: (§1) Cytotoxicity assay of compounds for neuroblastoma cell SH-SY5Y:
# (§2) This testing example investigates the cytotoxicity of compounds against neuroblastoma cell SH-SY5Y, in order to determine the dose for the Parkinson ? s cell model protection assay in the next step. For the cytotoxicity assay, the specific test steps are as follows: the cultured neuroblastoma cell SH-SY5Y was grown in a 96-well cell culture plate with approximately 6000 cells per well. After overnight incubation, the culture medium was exchanged for a new one, and each well was added with different concentrations of Compounds 1-18 ([…], 10, 20, 50, 100, 200 μM), and different control samples were arranged. The cells were continued to be incubated at 37° C. for 48 hours. Each well was added with 10 μL of the dye AlamarBlue® (Invitrogen), and the cells were continued to be incubated at 37° C. for approximately 2 hours and then a color change of the staining solution could be observed; the change of absorption values was obtained on the enzyme-labeled instrument (Ex: 530 nm; Em: 590 nm). In the assay, there were 2 parallel tests for each compound with each concentration. The results were processed with software GraphPad Prism to calculate the cytotoxicity CC50 of each compound. The results are shown in Table 2 (in which Taxol is the positive control group).
# [4] = as above; assay type: cell-based; details: human, SH-SY5Y neuroblastoma cells, 48 hours incubation
# Description: as §1, §2
Structure (SMILES),protective effect against SH-SY5Y cell damage by MPP+ (cell viability) [1],IC50 [2] [nM],CC50 [3] [μmol[…]L^−1],CC50 at 48 h [4] [nM]
"O=C(Nc1ccnc(S(=O)(=O)Nc2ccc(Cl)cc2)c1)c1cccc2ccc(=O)oc12 [Compound 1, N-(2-(N-(4-chlorophenyl)aminosulfonyl)-pyridin-4-yl)-2-oxo-2H-chromene-8-amide]",more obvious protective effects,86,>20,
"O=C(Nc1ccnc(S(=O)(=O)Nc2cccc(Cl)c2)c1)c1cccc2ccc(=O)oc12 [Compound 2, N-(2-(N-(3-chlorophenyl)aminosulfonyl)-pyridin-4-yl)-2-oxo-2H-chromene-8-amide]",,359,>20,
"O=C(Nc1ccnc(S(=O)(=O)Nc2ccccc2Cl)c1)c1cccc2ccc(=O)oc12 [Compound 3, N-(2-(N-(2-chlorophenyl)aminosulfonyl)-pyridin-4-yl)-2-oxo-2H-chromene-8-amide]",,1230,>20,
"Cc1ccc(NS(=O)(=O)c2cc(NC(=O)c3cccc4ccc(=O)oc34)ccn2)cc1 [Compound 4, N-(2-(N-(4-methylphenyl)aminosulfonyl)-pyridin-4-yl)-2-oxo-2H-chromene-8-amide]",,356,>20,
"O=C(Nc1ccnc(S(=O)(=O)Nc2cccc([N+](=O)[O-])c2)c1)c1cccc2ccc(=O)oc12 [Compound 5, N-(2-(N-(3-nitrophenyl)aminosulfonyl)-pyridin-4-yl)-2-oxo-2H-chromene-8-amide]",,180,>20,
"N#Cc1ccccc1NS(=O)(=O)c1cc(NC(=O)c2cccc3ccc(=O)oc23)ccn1 [Compound 6, N-(2-(N-(2-cyanophenyl)aminosulfonyl)-pyridin-4-yl)-2-oxo-2H-chromene-8-amide]",,1700,>20,
"O=C(Nc1ccnc(S(=O)(=O)Nc2ccc(F)cc2)c1)c1cccc2ccc(=O)oc12 [Compound 7, N-(2-(N-(4-fluorophenyl)aminosulfonyl)-pyridin-4-yl)-2-oxo-2H-chromene-8-amide]",,120,>20,
"CS(=O)(=O)c1ccc(NS(=O)(=O)c2cc(NC(=O)c3cccc4ccc(=O)oc34)ccn2)cc1 [Compound 8, N-(2-(N-(4-methylsulfonylphenyl)aminosulfonyl)-pyridin-4-yl)-2-oxo-2H-chromene-8-amide]",,896,>20,
"O=C(Nc1ccnc(S(=O)(=O)Nc2ccc(C(F)(F)F)cc2)c1)c1cccc2ccc(=O)oc12 [Compound 9, N-(2-(N-(4-trifluoromethylphenyl)aminosulfonyl)-pyridin-4-yl)-2-oxo-2H-chromene-8-amide]",,90,>20,
"O=C(Nc1ccnc(S(=O)(=O)Nc2ccc(-c3ccccc3)cc2)c1)c1cccc2ccc(=O)oc12 [Compound 10, N-(2-(N-(4-phenylphenyl)aminosulfonyl)-pyridin-4-yl)-2-oxo-2H-chromene-8-amide]",,652,>20,
"O=C(Nc1ccnc(S(=O)(=O)Nc2ccc(O)cc2)c1)c1cccc2ccc(=O)oc12 [Compound 11, N-(2-(N-(4-hydroxyphenyl)aminosulfonyl)-pyridin-4-yl)-2-oxo-2H-chromene-8-amide]",,896,>20,
"COc1ccc(NS(=O)(=O)c2cc(NC(=O)c3cccc4ccc(=O)oc34)ccn2)cc1 [Compound 12, N-(2-(N-(4-methoxylphenyl)aminosulfonyl)-pyridin-4-yl)-2-oxo-2H-chromene-8-amide]",,2360,>20,
"O=C(Nc1ccnc(S(=O)(=O)Nc2ccc(F)c(F)c2)c1)c1cccc2ccc(=O)oc12 [Compound 13, N-(2-(N-(3,4-difluorophenyl)aminosulfonyl)-pyridin-4-yl)-2-oxo-2H-chromene-8-amide]",more obvious protective effects,80,>20,
"O=C(Nc1ccnc(S(=O)(=O)Nc2ccc(Cl)c(Br)c2)c1)c1cccc2ccc(=O)oc12 [Compound 14, N-(2-(N-(3-bromo-4-chlorophenyl)aminosulfonyl)-pyridin-4-yl)-2-oxo-2H-chromene-8-amide]",more obvious protective effects,195,>20,
"O=C(Nc1ccnc(S(=O)(=O)Nc2cccc3ccc(Br)cc23)c1)c1cccc2ccc(=O)oc12 [Compound 15, N-(2-(N-(7-bromonaphth-1-yl)aminosulfonyl)-pyridin-4-yl)-2-oxo-2H-chromene-8-amide]",more obvious protective effects,154,>20,
"O=C(Nc1ccnc(S(=O)(=O)Nc2cc(Cl)cc3ccccc23)c1)c1cccc2ccc(=O)oc12 [Compound 16, N-(2-(N-(3-chloronaphth-1-yl)aminosulfonyl)-pyridin-4-yl)-2-oxo-2H-chromene-8-amide]",,86,>20,
"O=C(Nc1ccnc(S(=O)(=O)Nc2cccc3ncccc23)c1)c1cccc2ccc(=O)oc12 [Compound 17, N-(2-(N-(quinoline-5-yl)aminosulfonyl)-pyridin-4-yl)-2-oxo-2H-chromene-8-amide]",,871,>20,
"CC(=O)O[C@H]1C(=O)[C@@]2(C)[C@H]([C@H](OC(=O)c3ccccc3)[C@]3(O)C[C@H](OC(=O)[C@H](O)[C@@H](NC(=O)c4ccccc4)c4ccccc4)C(C)=C1C3(C)C)[C@]1(OC(C)=O)CO[C@@H]1C[C@@H]2O [Taxol, reference compound]",,,,21
